Results reported in patent publication US20260041640A1 (INCYCLIX BIO, LLC, priority 2023, published 2026).
Where two headings read alike, the source gives them in different places.

Experiment: First-in-human clinical study: plasma and whole blood PK of INX-315 (oral QD, ASD tablet)
Format: in vivo
Conditions: human, plasma, plasma
Text: All INX-315 tablets were taken at approximately the same time(s) each day.
Samples will also be collected pre-dose on Cycle 1 Days 2, 8, 16, and Day 22, and pre-dose on Day 1 of each subsequent cycle.
Standard non-compartmental PK parameters were estimated.
Geometric mean and geometric CV % will be included in the summary statistics.
PK parameters will be summarized descriptively by dosing cohort. AUC and Cmax values will also be presented in scatter plots. Dose proportionality will be assessed for AUC and Cmax using a power model. The 90% CI of the slope for each PK parameter will be estimated from the model and presented in a summary table.
Cohort 1 enrollment of 6 subjects dosed at 100 mg oral QD was completed in October of 2023.
Patients were upgraded to the 200 mg QD dose level and PK/PD plasma parameters were measured (FIG. 18A).
Patients were administered the 200 mg QD and 300 mg QD dose levels and PK/PD plasma parameters were measured.

NS(=O)(=O)c1ccc(Nc2ncc3cc4n(c3n2)C2(CCCCC2)C(=O)NN4)cc1 [INX-315]
concentration at 15 day (oral, 100 mg, 100 mg QD, Day 15 observed, mean of first two patients, read-out: Cmin^free): 9.2 ng/mL | concentration at 12 h (oral, 100 mg, 100 mg QD, first dose level (Table 5), read-out: C12 hr): 252 ng/mL | concentration at 24 h (oral, 100 mg, 100 mg QD, first dose level (Table 5), read-out: C24 hr): 177 ng/mL | Cmax (oral, 100 mg, 100 mg QD, first dose level (Table 5), read-out: Cmax): 388 ng/mL | AUC (oral, 100 mg, 100 mg QD, removing esophageal cancer patient with low exposure, read-out: Total Area (adjusted AUC)): 2740 ng·h/mL | concentration at 0.5 h (oral, 200 mg, 200 mg QD (n = 2), 0.5 hr): 69.6 ng/mL | concentration at 1 h (oral, 200 mg, 200 mg QD (n = 2), 1.0 hr): 109 ng/mL | concentration at 2 h (oral, 200 mg, 200 mg QD (n = 2), 2.0 hr): 246 ng/mL | concentration at 6 h (oral, 200 mg, 200 mg QD (n = 2), 6.0 hr): 343 ng/mL | concentration at 8 h (oral, 200 mg, 200 mg QD (n = 2), 8.0 hr): 374 ng/mL | concentration at 24 h (oral, 200 mg, 200 mg QD (n = 2), […], read-out: Mean plasma concentration): 141 ng/mL | AUC (oral, 200 mg, 200 mg QD (n = 2), read-out: Total Area (AUC)): 6260 ng·h/mL | AUC(0-t) (oral, 200 mg, 200 mg QD, Day 1, Cohort 2, read-out: AUClast, geometric mean): 8940 ng·h/mL | AUC(0-t) (oral, 200 mg, 200 mg QD, Day 1, Cohort 2, read-out: AUClast, median): 7970 ng·h/mL | Cmax (oral, 200 mg, 200 mg QD, Day 1, Cohort 2, read-out: Cmax, geometric mean): 590 ng/mL | Cmax (oral, 200 mg, 200 mg QD, Day 1, Cohort 2, read-out: Cmax, median): 577 ng/mL | Tmax (oral, 200 mg, 200 mg QD, Day 1, Cohort 2, read-out: Tmax, median): 8 h | Tmax (oral, 200 mg, 200 mg QD, Day 1, individual subjects, read-out: Tmax): 8 h | half-life (oral, 200 mg, 200 mg QD, Day 1, individual subjects, read-out: t1/2 (converted)): 1090 min | AUC(0-t) (oral, 200 mg, 200 mg QD, Day 15, Cohort 2, read-out: AUClast, geometric mean): 12200 ng·h/mL | AUC(0-t) (oral, 200 mg, 200 mg QD, Day 15, Cohort 2, read-out: AUClast, median): 13700 ng·h/mL | Cmax (oral, 200 mg, 200 mg QD, Day 15, Cohort 2, read-out: Cmax, geometric mean): 922 ng/mL | Cmax (oral, 200 mg, 200 mg QD, Day 15, Cohort 2, read-out: Cmax, median): 888 ng/mL | Tmax (oral, 200 mg, 200 mg QD, Day 15, Cohort 2, read-out: Tmax, median): 6 h | half-life (oral, 200 mg, 200 mg QD, Day 15, Cohort 2, read-out: t1/2, geometric mean (converted)): 648 min | half-life (oral, 200 mg, 200 mg QD, Day 15, Cohort 2, read-out: t1/2, median (converted)): 630 min | Cmax (oral, 200 mg, 200 mg QD, Day 15, individual subjects, read-out: Cmax): 779 ng/mL | half-life (oral, 200 mg, 200 mg QD, Day 15, individual subjects, read-out: t1/2 (converted)): 502 min | AUC (oral, 300 mg, Cohort 3 (300 mg QD), Day 1, individual subjects, read-out: AUC Plasma): 8200 ng·h/mL | AUC (oral, 300 mg, Cohort 3 (300 mg QD), Day 15, Tlast = 6 hours, read-out: AUC Plasma): 4570 ng·h/mL | AUC (oral, 300 mg, Cohort 3 (300 mg QD), Day 15, individual subjects, read-out: AUC Plasma): 5820 ng·h/mL | AUC(0-t) (oral, 300 mg, 300 mg QD cohort, Day 1, geometric mean, read-out: AUClast, Geometric Mean): 9550 ng·h/mL | Cmax (oral, 300 mg, 300 mg QD cohort, Day 1, geometric mean, read-out: Cmax, Geometric Mean): 628 ng/mL | AUC(0-t) (oral, 300 mg, 300 mg QD cohort, Day 1, individual subjects, read-out: AUClast): 10200 ng·h/mL | Cmax (oral, 300 mg, 300 mg QD cohort, Day 1, individual subjects, read-out: Cmax): 727 ng/mL | Tmax (oral, 300 mg, 300 mg QD cohort, Day 1, individual subjects, read-out: Tmax): 8 h | half-life (oral, 300 mg, 300 mg QD cohort, Day 1, individual subjects, read-out: t1/2 (converted)): 1040 min | AUC(0-t) (oral, 300 mg, 300 mg QD cohort, Day 1, median, read-out: AUClast, Median): 10200 ng·h/mL | Cmax (oral, 300 mg, 300 mg QD cohort, Day 1, median, read-out: Cmax, Median): 615 ng/mL | Tmax (oral, 300 mg, 300 mg QD cohort, Day 1, median, read-out: Tmax, Median): 8 h | AUC(0-t) (oral, 300 mg, 300 mg QD cohort, Day 15, individual subjects, read-out: AUClast): 5590 ng·h/mL | Cmax (oral, 300 mg, 300 mg QD cohort, Day 15, individual subjects, read-out: Cmax): 568 ng/mL | Tmax (oral, 300 mg, 300 mg QD cohort, Day 15, individual subjects, read-out: Tmax): 1 h | half-life (oral, 300 mg, 300 mg QD cohort, Day 15, individual subjects, read-out: t1/2 (converted)): 554 min | AUC(0-t) (po, 100 mg, 100 mg QD cohort, Day 1, geometric mean, read-out: AUClast, Geometric Mean): 2020 ng·h/mL | Cmax (po, 100 mg, 100 mg QD cohort, Day 1, geometric mean, read-out: Cmax, Geometric Mean): 148 ng/mL | half-life (po, 100 mg, 100 mg QD cohort, Day 1, geometric mean, read-out: t1/2, Geometric Mean (converted)): 786 min | half-life (po, 100 mg, 100 mg QD cohort, Day 1, individual subjects, read-out: t1/2 (converted)): 690 min | AUC(0-t) (po, 100 mg, 100 mg QD cohort, Day 1, median, read-out: AUClast, Median): 2280 ng·h/mL | Cmax (po, 100 mg, 100 mg QD cohort, Day 1, median, read-out: Cmax, Median): 187 ng/mL
